The record followed here is patent US12595248B2, “PRMT5 inhibitors” (Merck Sharp & Dohme LLC, priority 2019, dated 2026).

Where two headings read alike, the source gives them in different places.

The target of one assay is T1, PRMT5 (Homo sapiens, UniProt O14744).
T1 construct: seeded with 4000 MCF-7 cells in 30 μl media; endogenous in cells; host or cells: MCF-7 cells
Description: PRMT5 Cell Target Engagement (TE) Assay. The assay is classed as cell-based. To be noted: MCF-7 cells, treated for 3 days, symmetric dimethylation of arginine (SDMA) by high content imaging. From the text:
PRMT5 Cell Target Engagement (TE) Assay
The PRMT5 TE assay is a biomarker assay for identifying compounds that inhibit symmetric dimethylation of arginine (SDMA) of PRMT5 substrates. The following substrates have been reported for PRMT5: histone H2A and H4 R3, Histone H3 R2, Histone H3 R8, spliceosome Sm proteins, ribosomal protein RPS10, p53, FEN1, nucleoplasmin, nucleolin, EGFR and EBNA. The assay focuses on detecting symmetrically dimethylated nuclear proteins using high content imaging technology. Detection of the expression of symmetrically dimethylated nuclear proteins is through a mixture of primary rabbit monoclonal antibodies to SDMA (CST 13222), which in turn recognized by an Alexafluor 488 dye-conjugated anti-rabbit IgG secondary antibody. The IN Cell Analyzer 2200 or Opera-Phenix measures nuclear Alexafluor 488 fluorescent dye intensity that is directly related to the level of expression of symmetrically dimethylated nuclear proteins at the single cell level. Nuclear AF488 dye intensities are compared to the mean value for DMSO treated cells (MIN) to report percent of inhibition for each compound-treated well.
In this assay, the cell potency (EC50) of each compound was determined from a ten point (1:3 serial dilution; top compound concentration of 10000 nM) titration curve using the following outlined procedure. Each well of a BD falcon collagen coated black/clear bottom 384-well plate was seeded with 4000 MCF-7 cells in 30 μl media and allowed to attach for 5 h. Media is ATCC-formulated Eagle's Minimum Essential Medium, Catalog No. 30-2003. To make the complete growth medium, the following components were added to the base medium: 0.01 mg/mL human recombinant insulin; fetal bovine serum to a final concentration of 10%. Additional 30 μl of media containing 2× compounds were added to each well. Cells were treated for 3 days in 37° C. CO2 incubator. On day 3, cells were fixed with Cytofix, permeabilized with 0.4% Triton-X-100/Cytofix, and washed with D-PBS without Ca/Mg. Cells were blocked with Licor Odessey blocking reagent for 1 h at room temperature, followed by incubation with anti-SDMA (1:1000) antibody at 4° C. overnight. 1° antibody was removed, followed by three washings with DPBS without Ca/Mg and 0.05% Tween20. Hoechst (5 μg/mL), Cell Mask deep stain (1:2000) and Alexa488-conjugated goat anti-rabbit IgG (2 μg/mL) was added for 1 h at room temperature. A final washing step (three washes) was performed before sealing plate for imaging on In Cell Analyzer 2200 or Opera-Phenix. Images from analyzer were uploaded to Columbus (at WP or BOS) for image analysis. IC50 values were determined by 4 parameters robust fit of percent fluorescence units vs. (Log10) compound concentrations.

In assay [1] the target is T2, PRMT5-MEP50 enzyme complex (Homo sapiens, UniProt O14744).
T2 construct: Full-length (FL)-PRMT5-MEP50 enzyme complex (recombinant proteins from baculovirus-transfected Sf21 cells: FL-PRMT5; MW=73837 kDa and FL-MEP50; MW=38614); made in house; host or cells: baculovirus-transfected Sf21 cells
Nature of the assay: PRMT5-MEP50 Enzyme Methylation Assay (Version B). The assay is classed as biochemical. On the procedure: PRMT5-MEP50 Enzyme Methylation Assay (Version B)
PRMT5-MEP50 biochemical assay is a direct measurement of the methylation activity of the enzyme complex on a short peptide substrate derived from the N-terminus of H4 histone. Methylation experiment was performed with recombinant PRMT5-MEP50 protein complex. The assessment of inhibitory effect (EC50) of small molecules was measured by the effectiveness of the compounds to inhibit this reaction.
In this assay, the potency (EC50) of each compound was determined from a twenty-point (1:2 serial dilution; top compound concentration of 100000 nM) titration curve using the following outlined procedure. To each well of a white ProxiPlus 384 well-plate, 100 nL of compound (1% DMSO in final assay volume of 10 μL) was dispensed, followed by the addition of 8 μL of 1× assay buffer (50 mM Bicine pH 8.0, 1 mM DTT, 0.004% Tween20, 0.01% BSA) containing 0.625 nM of Full-length (FL)-PRMT5-MEP50 enzyme complex (recombinant proteins from baculovirus-transfected Sf21 cells: FL-PRMT5; MW=[…] and FL-MEP50; MW=38614). Plates were sealed and placed in a 37° C. humidified chamber for 30 minutes pre-incubation with compounds. Subsequently, each reaction was initiated by the addition of 2 μL 1× assay buffer containing 375 nM biotinylated H4R3 (MeI) peptide, and 75 μM S-(5′-Adenosyl)-L-Methionine Chloride (SAM). The final reaction in each well of 10 μL consists of 0.5 nM PRMT5-MEP50, 75 nM biotinylated-peptide, and 15 μM SAM. Methylation reactions were allowed to proceed for 150 minutes in a sealed plate at 37° C. Reactions were immediately quenched by the addition of 1 μL of 10% formic acid. Plates were then frozen and shipped to SAMDI™ Tech Inc. to determine the percent conversion from […]. Dose-response curves were generated by plotting percent effect (% product conversion; Y-axis) vs. Log 10 compound concentrations (X-axis). EC50 values were determined by non-linear regression according to models for either sigmoidal (4 parameters) or biphasic (7 parameters) dose-response curves.

[2] abbreviates: first of two EC50s: 7 parameters biphasic model, read-out: Enzyme Methylation Assay Version B (EC50_1).
Where [3] appears, read: second of two EC50s: 7 parameters biphasic model, read-out: Enzyme Methylation Assay Version B (EC50_2).
[4] abbreviates: only one EC50 shown: 4 parameters single site sigmoidal model, 30 min pre-incubation, read-out: Enzyme Methylation Assay Version B (EC50).

T2 sequence (O14744 whole entry): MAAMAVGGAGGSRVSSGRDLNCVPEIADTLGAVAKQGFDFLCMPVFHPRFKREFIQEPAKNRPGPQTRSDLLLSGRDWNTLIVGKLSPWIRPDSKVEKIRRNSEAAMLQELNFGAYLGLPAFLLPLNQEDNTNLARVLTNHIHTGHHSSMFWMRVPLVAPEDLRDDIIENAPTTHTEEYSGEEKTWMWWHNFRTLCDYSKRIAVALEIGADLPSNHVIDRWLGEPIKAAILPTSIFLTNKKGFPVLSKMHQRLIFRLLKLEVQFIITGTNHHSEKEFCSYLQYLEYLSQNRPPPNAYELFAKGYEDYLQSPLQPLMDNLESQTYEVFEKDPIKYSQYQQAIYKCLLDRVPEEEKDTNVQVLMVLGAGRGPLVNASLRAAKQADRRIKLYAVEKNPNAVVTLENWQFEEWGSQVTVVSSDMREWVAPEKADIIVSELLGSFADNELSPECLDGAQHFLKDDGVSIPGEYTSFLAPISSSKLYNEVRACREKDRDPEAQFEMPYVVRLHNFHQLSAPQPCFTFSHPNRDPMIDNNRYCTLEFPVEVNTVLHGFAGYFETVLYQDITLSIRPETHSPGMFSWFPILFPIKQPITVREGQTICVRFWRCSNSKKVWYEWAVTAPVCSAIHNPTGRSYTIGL
T2 sequence (Q9BQA1 whole entry partner): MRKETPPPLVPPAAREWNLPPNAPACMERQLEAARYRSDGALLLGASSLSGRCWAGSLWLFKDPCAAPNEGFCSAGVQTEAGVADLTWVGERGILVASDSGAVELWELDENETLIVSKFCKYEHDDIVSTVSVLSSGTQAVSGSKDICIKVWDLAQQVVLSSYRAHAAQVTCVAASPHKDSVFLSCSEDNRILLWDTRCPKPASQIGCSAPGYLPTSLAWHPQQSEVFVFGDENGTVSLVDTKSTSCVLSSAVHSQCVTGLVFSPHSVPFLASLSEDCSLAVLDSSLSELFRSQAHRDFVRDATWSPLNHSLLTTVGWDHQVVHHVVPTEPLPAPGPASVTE
T1 sequence (O14744 whole entry): as the sequence (O14744 whole entry) above
T1 sequence (Q9BQA1 whole entry partner): as the sequence (Q9BQA1 whole entry partner) above

Turning to `CC(=O)N1CCC(Nc2cc(C(=O)N3CCC(N4Cc5ccccc5C(F)(F)C4)C(O)C3)c(Cl)cn2)CC1` (single isomer, unassigned) [Example 28, l-(4-((5-chloro-4-(-4-(4,4-difluoro-3,4-dihydroisoquinolin-2(lH)-yl)-3-hydroxypiperidine-1 - carbonyl)pyridin-2-yl)amino)piperidin-1-yl)ethan-1-one], the EC50 at PRMT5 turned out to be 1.66 µM; in assay [1] (setting [2]), 1.27 µM; in assay [1] (setting [3]) it was 45.2 µM.
With `O=C(c1ccc(OCC(F)(F)F)nc1)N1CCC(N2Cc3ccccc3C(F)(F)C2)C(O)C1` (single isomer, unassigned) [Example 29, (-4-(4,4-difluoro-3,4-dihydroisoquinolin-2(1H)-yl)-3-hydroxypiperidin-1-yl)(6-(2,2,2-trifluoroethoxy)pyridin-3-yl)methanone], the EC50 was greater than 10 µM on PRMT5 and 1.34 µM in assay [1] (setting [4]).
As to `CC(=O)N1CCC(Nc2cc(C(=O)N3C[C@H]4C[C@@H]3C(O)C4N3CCc4ccccc4C3)c(F)cn2)CC1` (single isomer, unassigned) [Example 30], the EC50 on PRMT5 was greater than 10 µM; in assay [1] (setting [4]), 4.83 µM.
On the same counts, the results for `Cc1ccc2c(c1)CN(C1CCN(C(=O)c3ccc(OCC(F)(F)F)nc3)CC1O)CC2` (single isomer, unassigned) [Example 47, ((3R,4R or 3S,4S)-3-hydroxy-4-(7-methyl-3,4-dihydroisoquinolin-2(1H)-yl)piperidin-1-yl)(6-(2,2,2-trifluoroethoxy)pyridin-3-yl)methanone] are greater than 10 µM and 1.18 µM.
For `Cc1ccc2c(c1)CN(C1CCN(C(=O)c3ccc(OCC(F)(F)F)nc3)CC1O)CC2` (single isomer, unassigned) [Example 48, ((3S,4S or 3R,4R)-3-hydroxy-4-(7-methyl-3,4-dihydroisoquinolin-2(1H)-yl)piperidin-1-yl)(6-(2,2,2-trifluoroethoxy)pyridin-3-yl)methanone], in that order: greater than 10 µM and 17.8 µM.
In the case of `O=C(c1cn2c(n1)CCC(C(F)(F)F)C2)N1CC[C@H](N2CCc3ccccc3C2)[C@@H](O)C1` (single isomer, unassigned) [Example 82], the EC50 on PRMT5 is 0.1 µM; in assay [1] (setting [2]) it was roughly 0.008 µM; in assay [1] (setting [3]), 6.17 µM.
Take `O=C(c1cn2c(n1)CCC(C(F)(F)F)C2)N1CC[C@H](N2CCc3ccccc3C2)[C@@H](O)C1` (single isomer, unassigned) [Example 83]: the EC50 at PRMT5 was 0.365 µM; in assay [1] (setting [2]), 0.012 µM; in assay [1] (setting [3]), 9.55 µM.
On the same counts, the results for `CC(=O)N1CCC(Nc2cc(C(=O)N3CC[C@H](N4CCc5ccccc5C4)[C@@H](O)C3)c(F)cn2)C(F)(F)C1` (single isomer, unassigned) [Example 86] are 0.0044 µM, 0.0053 µM and 3.76 µM.
On the same counts, the results for `CC(=O)N1CCC(Nc2cc(C(=O)N3CC[C@H](N4CCc5ccccc5C4)[C@@H](O)C3)c(F)cn2)C(F)(F)C1` (single isomer, unassigned) [Example 87] are 0.059 µM, 0.0086 µM and 7.24 µM.
For `CC(C)(C#N)c1ccc(C(=O)N2CC[C@H](N3CCc4ccccc4C3)[C@@H](O)C2)cn1` (single isomer, unassigned) [Example 89], in that order: 3.95 µM, roughly 0.11 µM and greater than 100 µM.
With `CC(C)(C#N)c1ccc(C(=O)N2CC[C@@H](N3CCc4ccccc4C3)[C@H](O)C2)cn1` (single isomer, unassigned) [Example 90], the EC50 at PRMT5 was greater than 10 µM; in assay [1] (setting [4]) it was 1.54 µM.
In the case of `CC1OC(=O)Nc2cc(C(=O)N3CC[C@H](N4CCc5ccccc5C4)[C@@H](O)C3)ccc21` (single isomer, unassigned) [Example 91], the EC50 was found to be 7.53 µM at PRMT5, 0.127 µM in assay [1] (setting [2]) and 70.8 µM in assay [1] (setting [3]).
For `CC1OC(=O)Nc2cc(C(=O)N3CC[C@@H](N4CCc5ccccc5C4)[C@H](O)C3)ccc21` (single isomer, unassigned) [Example 92], in that order: 0.032 µM, 0.0044 µM and 2.46 µM.
For `CC1OC(=O)Nc2cc(C(=O)N3CC[C@@H](N4CCc5ccccc5C4)[C@H](O)C3)ccc21` (single isomer, unassigned) [Example 93], in that order: 0.182 µM, roughly 0.018 µM and 11.8 µM.
As to `CC1OC(=O)Nc2cc(C(=O)N3CC[C@H](N4CCc5ccccc5C4)[C@@H](O)C3)ccc21` (single isomer, unassigned) [Example 94], the EC50 on PRMT5 was 4.56 µM; in assay [1] (setting [2]) it was roughly 0.291 µM; in assay [1] (setting [3]), greater than 100 µM.
For `CC1OC(=O)Nc2cc(C(=O)N3CC[C@H](N4CCc5ccccc5C4)[C@@H](O)C3)c(F)cc21` (single isomer, unassigned) [Example 99], in that order: 0.131 µM, 0.0082 µM and 8.71 µM.
For `CC1OC(=O)Nc2cc(C(=O)N3CC[C@H](N4CCc5ccccc5C4)[C@@H](O)C3)c(F)cc21` (single isomer, unassigned) [Example 100], in that order: 0.015 µM, 0.0048 µM and 1.72 µM.
On the same counts, the results for `CC(=O)N1CCC(Nc2cc(C(=O)N3CC[C@@H](N4CCc5ccccc5C4)[C@H](O)C3)c(F)cn2)CC1` [Example 3, 1-(4-((4-((3R,4R)-4-(3,4-dihydroisoquinolin-2(1H)-yl)-3-hydroxypiperidine-l-carbonyl)-5-fluoropyridin-2-yl)amino)piperidin-l-yl)ethan-l-one] are 3.09 µM, roughly 0.075 µM and 37.6 µM.
As for `Cc1ccc2c(c1)CCN([C@H]1CCN(C(=O)c3ccc(OCC(F)(F)F)nc3)C[C@@H]1O)C2` [Example 4, ((3S,4S)-3-hydroxy-4-(6-methyl-3,4-dihydroisoquinolin-2(1H)-yl)piperidin-1-yl)(6-(2,2,2-trifluoroethoxy)pyridin-3-yl)methanone], the values for the EC50 (on PRMT5; in assay [1] (setting [2]); in assay [1] (setting [3])) were greater than 10 µM, roughly 0.01 µM and 29.2 µM, respectively.
